Laboratory results reported in US20240415851A1, “REMODILINS TO PREVENT OR TREAT CANCER METASTASIS, GLAUCOMA, AND HYPOXIA” (The University of Chicago, priority 2019, published 2024).

Tests used:
[1] = test system: human primary trabecular meshwork cells; test: α-SMA expression in TGF-β2 treated TM cells; format: cell-based; conditions: TGFβ2 5 ng/mL 48 hr; remodilin 3 μM, PGE2 1 μM; vs DMSO
Method: FIG. 9 Anti-fibrogenic effects of remodilin 50 in human primary trabecular meshwork cells.
(§1) TM cells were cultured in 6-well plates and serum-deprived for one day before drug treatment. Cells were treated with prostaglandin E2 (PGE2, 1 μM), remodilin [3 μM] or vehicle control (dimethyl sulfoxide, DMSO) together with human recombinant TGF-β2 [5 ng/ml] for 48 hours. PGE2 was chosen as a positive control due to its known anti-fibrogenic effects. […] The effect of remodilin treatment alone on cellular contractile force in TM cells was examined. The effects of remodilin treatment using “force response ratio” which is a normalized average contractile force compared to baseline, was examined. Average contractile force was measured using Fourier-Transform Traction Microscopy. After 1 hr treatment, compared to DMSO, remodilins reduced average contractile force of TM cells in a dose dependent manner. […] Therefore, remodilins may change structural compositions and mechanical properties of TM and therefore, may help increase outflow facility in glaucomatous eyes with elevated TGF-β2 level.

[2] = test system: human lung-derived fibroblasts; test: TGFβ-induced myofibroblast transformation (ACTA2, FN1 protein expression); format: cell-based; conditions: 1 ng/mL TGFβ1; 0, 1, 3, or 10 μM remodilin for 2 d; dose-dependent
Method: FIG. 1 Remodilins inhibit myofibroblast transformation (MFT). Serum deprived human lung-derived fibroblasts were treated with 1 ng/mL TGFβ1 (or not, left lane) and 0, 1, 3, or 10 μM remodilin for 2 d. Four remodilins each inhibited smooth muscle α-actin (ACTA2) or fibronectin-1 (FN1) protein expression (markers of MFT).

[3] = test system: Smad-dependent transcription; test: TGFβ-stimulated Smad-dependent transcription (SBE-Luc reporter); format: cell-based; conditions: human lung fibroblasts; 10 μM
Method: (§2) FIG. 2 Signaling pathway targeted by remodilins. Schematic diagram (center) of signaling from TGFβ to (SRF); red proteins are some, but not all, potential targets. TGFβ stimulates Smad-dependent transcription in human lung fibroblasts that is unchanged by 10 μM remodilin 4 (left), but TGFβ-stimulated SRF-dependent transcription is inhibited by the remodilin (right). SBE—Smad binding element; Luc—luciferase; TK-RL—constitutively active thymidine kinase promoter-driven renilla luciferase (used to control for transfection efficiency).
(§3) In cultured human lung fibroblasts, remodilins act downstream of Smad signaling, which remains intact, though TGFβ-induced SRF activation is blocked (FIG. 2); SRF is necessary for expression of smooth muscle α-actin and other contractile proteins. Remodilins also suppress TGFβ-induced HIF1α expression in human lung fibroblasts and HIF1α-stimulated pathways in human airway myocytes.

[4] = test system: SRF-dependent transcription; test: TGFβ-stimulated SRF-dependent transcription (luciferase reporter); format: cell-based; conditions: human lung fibroblasts; 10 μM
Method: as §2, §3

[5] = test system: MDA-MB-231 cells; test: Spheroid invasion into collagen gels; format: cell-based, human; conditions: 10 µM remodilin; 48 hrs; collagen 2 mg/mL; DMEM 0.5% FBS; vs 0.1% DMSO
Method: FIG. 3 MDA-MB-231 cells were grown into spheroids, then allowed to migrate into collagen gels in DMEM containing 0.5% FBS and remodilin (10 µM remodilin 39 [top row] or remodilin 83 [bottom row]) or diluent (0.1% DMSO) for 48 hrs (representative 48 hr images shown).
(§4) Remodilins 39 and 83 each slowed the invasion of triple negative MDA-MB-231 human breast cancer cells from spheroids into a surrounding collagen gel (FIG. 3), and also slowed the serum-directed invasion MDA-MB-231-derived BM1 cells through Matrigel-coated transwells (FIG. 4). Remodilins 39 and 83 also slowed the migration of MDA-MB-231 cells in a scratch wound healing assay (FIG. 5).

[6] = test system: MDA-MB-231-derived BM1 cells; test: 10% FBS-directed invasion through Matrigel-coated transwell membrane; format: cell-based, human; conditions: dose-dependent; n=3/condition
Description: FIG. 4 Remodilins 39 and 83 inhibited 10% FBS-directed invasion migration of MDA-MB-231-derived BM1 cells through a Matrigel-coated transwell mem-brane, in a dose-dependent fashion. Mean+SEM shown; n=3/condition. **P<0.01; ***P<0.001; ****P<0.0001.
as §4

[7] = test system: MDA-MB-231 cells; test: Scratch wound healing migration assay; format: cell-based, human; conditions: dose-dependent; 1, 3, 10 uM; n=8 wells/condition
Method: Mean+SD shown; n=8 wells/condition. P<0.0001 for 1, 3, & 10 uM remodilin 39 vs DMSO (control) by 2-way ANOVA/Dunnett's.
as §4

[8] = test system: MDA-MB-231 cells; test: Alamar blue assay (growth inhibition, cytotoxicity); format: cell-based, human; conditions: concentrations to at least 10 uM
[9] = In vivo PK and oral bioavailability, single dose; conditions: mouse, plasma, wild-type mice, 10 mg/kg single dose
Method: (§5) The in vivo bioavailability, plasma half-life, Cmax, and area under the curve (AUC) were determined after administration of single 10 mg/kg doses of remodilins 39 and 83 to mice (Table 1). Selected tissue concentrations of remodilins 39 and 83 after single oral doses of 10 or 50 mg/kg (FIG. 6). The PK properties of these remodilins differ substantially.

[10] = Tissue and plasma concentrations after single oral doses; format: in vivo; conditions: mice; single oral doses of 10 or 50 mg/kg (FIG. 6)
Method: FIG. 6 Tissue and plasma remodilin concentrations after single oral doses (filled circles 50 mg/kg; open circles-10 mg/kg). […] The greater oral bioavailability, longer half-life, and inter-tissue variation of remodilin 83 concentration are readily evident. Mean+SEM shown; n=3/condition.
as §5
PK was re-evaluated after 14 days of intraperitoneal (IP) or oral BID dosing. […] Plasma levels after single or 15 consecutive once-daily IP 10 mg/kg doses of remodilin 39 were examined (FIG. 8). The plasma concentration of 10 μM remodilin 39 corresponds to 5314 ng/mL.

[11] = Lipophilicity and dissolution in vehicles; format: physicochemical
Method: In the experiments corresponding to FIG. 7, remodilin 83 was dissolved in 20% Solutol in PBS.

[12] = test system: HIF1α; test: Hypoxia-induced HIF1α accumulation in HEK293 cells; format: cell-based; conditions: 6 hrs steady hypoxia (1% oxygen); 3 μM or 10 µM
Description: FIG. 12A-12B Remodilins inhibit accumulation of hypoxia-inducible factor-1 alpha (HIF1α) protein. FIG. 12A Effect of remodilin 83 on TGFβ-induced phosphorylation of AKT and ERK1/2 and TGFβ-induced HIF1α accumulation in human fibroblasts. FIG. 12B Both remodilins 39 and 83 inhibited HIF1α accumulation in HEK293 cells exposed to 6 hrs of hypoxia (1% 02).
The influence of remodilin 83 on HIF-1α accumulation in TGFβ-treated fibroblasts was examined. […] Similarly, both remodilins 39 and 83 inhibited HIF1α accumulation in HEK293 cells exposed to 6 hrs of hypoxia (1% O2; FIG. 12B). […] N—normoxia; H—hypoxia.

[13] = test system: HIF1α; test: Hypoxia-induced HIF1α accumulation in HEK293T cells (Western blot); format: cell-based; conditions: 6 hrs steady hypoxia; 3 or 10 μM
Description: FIG. 14A-14B Remodilins' effects on hypoxia-induced accumulation of HIF1α. […] FIG. 14B HIF1α was absent in cells ex-posed to 6 hrs normoxia (N).
OSA is a chronic, morbid disease affecting about 10% of the adult population, in which frequent episodes of upper airway collapse obstruct inspiratory airflow and cause IH. These episodes of IH disrupt sleep but perhaps more importantly accelerate multiple cardiometabolic abnormalities, including systemic hypertension, cardiovascular disease, stroke, and abnormal glucose metabolism. Therefore, remodilins were examined for their ability on inhibit hypoxia-induced accumulation of HIF1α, a transcription factor that mediates many of the adverse responses to IH.

[14] = test system: TM cells; test: Contractile force of TM cells (Fourier-Transform Traction Microscopy); format: cell-based, human; conditions: treatment alone, 1 hr, vs DMSO; dose dependent
Method: as §1

[15] = test system: human primary Schlemm's canal endothelial cells; test: Fibronectin expression in TGF-β2 treated SC cells; format: cell-based; conditions: TGFβ2 2.5 ng/mL 48 hr; remodilin 3 or 10 μM; vs DMSO
Method: (§6) FIGS. 11A-11C Anti-fibrogenic effects of remodilins 50, 73, and 82 in human primary Schlemm's canal endothelial cells.
Remodilins' effect on SC cells, another key cell type in conventional outflow pathway, was examined. As described above, TGF-β2 also promotes pro-fibrogenic activation in SC cells and such activation accompanies elevation of cell contraction. Protein expression in TGF-β2 treated SC cells was examined first. SC cells from two different donors were cultured in 6-well plates and serum-deprived for 1 day before drug treatment. Cells were treated with Remodilin [3 or 10 μM] or DMSO together with human recombinant TGF-2 [2.5 ng/ml] for 48 hours.

[16] = test system: human primary Schlemm's canal endothelial cells; test: Contractile force of SC cells (Fourier-Transform Traction Microscopy); format: cell-based; conditions: vs DMSO; for elevation of cellular contractile force in TGFβ2 treated SC cells: TGFβ2 2.5 ng/mL 48 hr, dose-dependent; for cellular contractile force of SC cells, remodilin alone: treatment alone, 1 hr, dose dependent
Method: as §6
Remodilins' effect on elevation of SC cell contraction by TGF-β2 treatment was then examined. Cellular contractile force was measured using Fourier-Transform Traction Microscopy. Compared to no treatment, TGF-β2 treatment elevated average cellular contractile force by almost seven-fold. […] Then, the effect of remodilin treatment alone on cellular contractile force in SC cells was investigated. After 1 hr treatment, compared to DMSO, remodilins reduced cellular contractile force in a dose dependent manner (FIG. 11C). […] Taken together, the anti-fibrogenic effects and relaxation effects of remodilins could be beneficial to reduce outflow resistance potentially through promoting pore formation in SC inner wall.

Row | SMILES | α-SMA expression induced by TGF-β2 in TM cells [1] | TGFβ-stimulated transformation of human lung-derived fibroblasts to myofibroblast phenotype (ACTA2 or FN1 protein expression) [2] | average contractile force of TM cells (force response ratio) [14] | fibronectin expression in TGFβ2 treated SC cells [15] | elevation of cellular contractile force in TGFβ2 treated SC cells [16] | cellular contractile force of SC cells, remodilin alone [16] | also measured
1 | CCCCC[C@H](O)/C=C/[C@H]1[C@H](O)CC(=O)[C@@H]1C/C=C\CCCC(=O)O [PGE2, prostaglandin E2, reference compound] | inhibited α-SMA expression | – | – | – | – | – | –
2 | CCN(CC)S(=O)(=O)c1ccc(NC(=O)c2ccc(OC)c(I)c2)cc1 [Remodilin 4, N-(4-(N,N-diethylsulfamoyl)phenyl)-3-iodo-4-methoxybenzamide] | – | blunt TGFβ-stimulated transformation | – | – | – | – | TGFβ-stimulated Smad-dependent transcription [3]: unchanged; TGFβ-stimulated SRF-dependent transcription [4]: inhibited
3 | COc1ccc(C(=O)Nc2ccc(S(=O)(=O)N3CCCCC3C)cc2)cc1I (stereo not drawn) [Remodilin 39, 3-Iodo-4-methoxy-N-(4-((2-methylpiperidin-1-yl)sulfonyl)phenyl)benzamide] | – | blunt TGFβ-stimulated transformation | – | – | – | – | invasion of MDA-MB-231 cells from spheroids into collagen gels [5]: inhibited invasion; 10% FBS-directed invasion migration of BM1 cells through Matrigel-coated transwell membrane [6]: inhibited; migration of confluent MDA-MB-231 cells into circular scratch wound [7]: inhibited migration; growth inhibition or cytotoxicity by Alamar blue assay [8]: Neither remodilin is growth-inhibitory or cytotoxic; bioavailability ([9]; po): 4%; AUC [9]: 224 ng·h/mL; Cmax [9]: 240 nM; half-life [9]: 78 min; tissue distribution [10]: distributed much more uniformly across tissues; lipophilicity / lipid solubility [11]: highly lipid soluble; HIF1α accumulation in HEK293 cells exposed to hypoxia [12]: blunted HIF1α accumulation substantially; HIF1α accumulation in HEK293T cells exposed to hypoxia [13]: inhibit the accumulation of HIF1α
4 | O=C(Nc1ccc(S(=O)(=O)N2CCCC2)cc1)c1ccc(Br)c(I)c1 [Remodilin 50, 4-Bromo-3-iodo-N-(4-(pyrrolidin-1-ylsulfonyl)phenyl)benzamide] | inhibited alpha smooth muscle actin expression | blunt TGFβ-stimulated transformation | induced relaxation in TM cells | inhibited fibronectin expression | inhibited the elevation of cellular contractile force | induced relaxation in SC cells | –
5 | CC1CCCCN1S(=O)(=O)c1ccc(NC(=O)c2ccc(Br)c(I)c2)cc1 (stereo not drawn) [Remodilin 73, 4-Bromo-3-iodo-N-(4-((2-methylpiperidin-1-yl)sulfonyl)phenyl)benzamide] | – | – | – | inhibited fibronectin expression | inhibited the elevation of cellular contractile force | induced relaxation in SC cells | –
6 | CCC1CCCCN1S(=O)(=O)c1ccc(NC(=O)c2ccc(OC)c(I)c2)cc1 (stereo not drawn) [Remodilin 82, N-(4-((2-ethylpiperidin-1-yl)sulfonyl)phenyl)-3-iodo-4-methoxybenzamide] | – | – | induced relaxation in TM cells | inhibited fibronectin expression | inhibited the elevation of cellular contractile force | induced relaxation in SC cells | –
